Source: ChEMBL document CHEMBL1136476, “Catechol-substituted L-chicoric acid analogues as HIV integrase inhibitors” (Bioorg Med Chem Lett, 2003)

The molecules below were run against Human immunodeficiency virus type 1 integrase (Human immunodeficiency virus 1, UniProt Q7ZJM1) (assay: Inhibitory activity against HIV-1 integrase).
Human immunodeficiency virus type 1 integrase, sequence (Q7ZJM1 whole entry): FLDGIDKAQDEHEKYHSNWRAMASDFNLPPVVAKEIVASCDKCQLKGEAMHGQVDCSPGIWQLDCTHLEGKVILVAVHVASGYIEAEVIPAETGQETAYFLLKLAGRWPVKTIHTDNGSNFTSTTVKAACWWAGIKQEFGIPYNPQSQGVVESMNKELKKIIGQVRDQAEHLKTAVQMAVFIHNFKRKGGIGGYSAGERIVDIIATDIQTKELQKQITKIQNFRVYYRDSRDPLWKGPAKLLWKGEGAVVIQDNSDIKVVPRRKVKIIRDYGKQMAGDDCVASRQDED

Structure (SMILES)	IC50 [µM]
O=C(O)C(Cc1ccc(O)c(O)c1)C(Cc1ccc(O)c(O)c1)C(=O)O (stereo not given)	19.1
COc1ccc(CC(C(=O)O)C(Cc2ccc(OC)c(OC)c2)C(=O)O)cc1OC (stereo not given)	> 150
COc1ccc(C2=C(c3ccc(OC)c(OC)c3)C(=O)NC2=O)cc1OC	> 150
COc1ccc(C(C(=O)O)C(C(=O)O)c2ccc(OC)c(OC)c2)cc1OC (stereo not given)	> 150
COc1ccc(-c2c(C(=O)O)[nH]c(C(=O)O)c2-c2ccc(OC)c(OC)c2)cc1OC	> 150

The remaining lines, values ahead:

IC50 [µM]	Structure (SMILES)
15.5	O=C1NC(=O)C(c2ccc(O)c(O)c2)=C1c1ccc(O)c(O)c1
3.8	O=C1OC(=O)C(c2ccc(O)c(O)c2)=C1c1ccc(O)c(O)c1
5.3	O=C(O)c1[nH]c(C(=O)O)c(-c2ccc(O)c(O)c2)c1-c1ccc(O)c(O)c1
> 150	COc1ccc(C2=C(c3ccc(OC)c(OC)c3)C(=O)OC2=O)cc1OC
23.6	O=C(O)C(c1ccc(O)c(O)c1)C(C(=O)O)c1ccc(O)c(O)c1 (stereo not given)
